According to publication PMC7618597, “Dual Nurr1/RXR agonism of valerenic acid and synthetic mimetics enables dimer-selective Nurr1 modulation” (ACS medicinal chemistry letters, 2025):
pEC50: −log10 of the molar value.

Assays:
RXRγ = target: T1, RXRγ (Homo sapiens, UniProt P48443); experiment: Gal4-hybrid reporter gene assay, RXRγ; assay type: cell-based; details: Gal4-hybrid reporter gene assay; for pEC50: mean±S.E.M., n≥3
T1 construct: pFA-CMV-hRXRγ-LBD; expressed in transfected cells; host or cells: HEK293T
T1 sequence (P48443 231-459 limits assumed): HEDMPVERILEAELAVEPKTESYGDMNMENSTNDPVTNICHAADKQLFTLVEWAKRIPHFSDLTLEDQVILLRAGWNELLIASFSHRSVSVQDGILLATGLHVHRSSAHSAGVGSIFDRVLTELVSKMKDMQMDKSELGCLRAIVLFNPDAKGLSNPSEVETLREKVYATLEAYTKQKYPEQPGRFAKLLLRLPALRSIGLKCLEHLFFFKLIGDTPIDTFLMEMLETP
Method: modified Eagle’s medium (DMEM), high glucose supplemented with 10% fetal calf serum (FCS), sodium pyruvate (1 mM), penicillin (100 U/mL), and streptomycin (100 μg/mL) at 37 °C and 5% CO2 and seeded in 96-well plates (3×10^4 cells/well). After 24 h, the medium was changed to Opti-MEM without supplements, and the cells were transiently transfected using Lipofectamine LTX reagent (Invitrogen) according to the manufacturer’s protocol. Five hours after transfection, the cells were incubated with the test compounds in Opti-MEM supplemented with penicillin (100 U/mL), streptomycin (100 μg/mL), and 0.1% DMSO for 15 h before luciferase activity was measured using the Dual -Glo Luciferase Assay System (Promega) according to the manufacturer’s protocol on a Tecan Spark l uminometer (Tecan Deutschland GmbH, Germany). Firefly luminescence was divided by Renilla luminescence and multiplied by 1000, resulting in relative light units (RLU) to normalize for transfection efficiency and cell growth. Fold activation was obtained by dividing the mean RLU of a sample by the mean RLU of the untreated control. All samples were tested in at least three biologically independent experiments in duplicates. For dose –response curve fitting and calculation of EC50 values, the equation “[Agonist] vs. response – Variable slope (four parameters)” was used in GraphPad Prism (version 5.04, GraphPad Software, La Jolla, CA, USA). […] (10 μM, NR4A) and bexarotene (1 µM, NR2B) served as the positive control. […]
150 μM in the same buffer containing 2-4% DMSO) in 21–26 injections (1 × 1 μL and 20 × 4 to 25 × 4 μL) with an injection interval of 120 s. As control experiments, the test compounds were titrated to the buffer, and the buffer was titrated to the protein under otherwise identical conditions. The heat rates of the compound-Nurr1 LBD titrations were analyzed using NanoAnalyze software (TA Instruments, New Castle, DE) with an independent binding model.

[1] = target: T2, full-length Nurr1 monomer (NBRE) (Homo sapiens, UniProt P43354); experiment: Full-length Nurr1 reporter gene assay, monomer response element NBRE; assay type: cell-based
T2 construct: full-length human nuclear receptor Nurr1 encoded by pcDNA3.1 -hNurr1-NE; host or cells: HEK293T
Method: Based on these findings, we next determined the effects of 2 and 3 on Nurr1 activity in a cellular setting using reporter constructs for the NGFI-B response element (NBRE), the Nur response element (NurRE), and the direct repeat 5 (DR5)[36]. All three response elements are robustly activated by common Nurr1 agonists[4],[31]. […]
modified Eagle’s medium (DMEM), high glucose supplemented with 10% fetal calf serum (FCS), sodium pyruvate (1 mM), penicillin (100 U/mL), and streptomycin (100 μg/mL) at 37 °C and 5% CO2 and seeded in 96-well plates (3×10^4 cells/well). […] Five hours after transfection, the cells were incubated with the test compounds in Opti-MEM supplemented with penicillin (100 U/mL), streptomycin (100 μg/mL), and 0.1% DMSO for 15 h before luciferase activity was measured using the Dual -Glo Luciferase Assay System (Promega) according to the manufacturer’s protocol on a Tecan Spark l uminometer (Tecan Deutschland GmbH, Germany). Firefly luminescence was divided by Renilla luminescence and multiplied by 1000, resulting in relative light units (RLU) to normalize for transfection efficiency and cell growth. […]
Reporter gene assays for full-length human Nurr1 and RXR. […] Firefly luminescence was divided by Renilla luminescence and multiplied by 1000, resulting in relative light units (RLU) to normalize for transfection efficiency and cell growth. […]

T2 sequence (P43354 whole entry): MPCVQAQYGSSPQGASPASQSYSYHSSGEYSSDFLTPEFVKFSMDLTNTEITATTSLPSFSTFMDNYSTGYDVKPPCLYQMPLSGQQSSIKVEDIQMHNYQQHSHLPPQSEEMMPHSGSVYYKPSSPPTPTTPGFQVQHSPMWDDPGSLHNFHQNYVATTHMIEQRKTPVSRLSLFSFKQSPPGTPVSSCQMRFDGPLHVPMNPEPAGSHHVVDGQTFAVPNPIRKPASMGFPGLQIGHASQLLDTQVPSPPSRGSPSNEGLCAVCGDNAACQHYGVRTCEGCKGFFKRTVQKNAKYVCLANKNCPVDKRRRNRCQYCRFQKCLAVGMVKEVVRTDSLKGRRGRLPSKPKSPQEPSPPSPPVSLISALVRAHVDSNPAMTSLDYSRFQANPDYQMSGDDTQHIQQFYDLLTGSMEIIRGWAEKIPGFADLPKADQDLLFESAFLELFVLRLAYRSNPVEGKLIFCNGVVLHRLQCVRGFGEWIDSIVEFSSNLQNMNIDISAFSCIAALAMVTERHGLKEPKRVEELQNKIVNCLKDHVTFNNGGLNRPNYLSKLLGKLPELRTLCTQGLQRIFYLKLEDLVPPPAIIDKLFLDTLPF

Row | SMILES | max. act. (RXR) γ (RXRγ) [fold] | pEC50 (RXRγ) | activation on NBRE [1]
1 | Cc1c2c(n(-c3ccc(CC(=O)O)cc3)c1C)CCC(F)(F)C2 [compound 2] | 44±1 | 5.47 | no activation was detectable
2 | Cc1c(C)n(-c2ccc(CC(=O)O)cc2)c2ccc(F)cc12 [compound 3] | 67±4 | 5.77 | no activation was detectable
